From the OPERA property sets (Mansouri et al. 2018)

SMILES	logP
Clc1c(Cl)c(Cl)c(-c2ccccc2)c(Cl)c1Cl	6.75
Clc1cccc(Cl)c1-c1c(Cl)cccc1Cl	5.94
CCCCC(CC)COC(=O)c1ccccc1C(=O)OCC(CC)CCCC (stereo not drawn)	7.6
CCc1ccc2c(c1)C(=O)c1ccccc1C2=O	4.37
Clc1c(Cl)c(Cl)c(Cl)c(Cl)c1Cl	5.73
Clc1cc(Cl)c(Cl)c(-c2c(Cl)c(Cl)cc(Cl)c2Cl)c1Cl	7.73
CCCCc1ccccc1	4.38
CCOP(=S)(OCC)Oc1cc(Cl)c(Br)cc1Cl	6.15
ClC1=C(Cl)[C@]2(Cl)[C@@H]3[C@@H]4C[C@@H]([C@H]5O[C@@H]45)[C@@H]3[C@@]1(Cl)C2(Cl)Cl (single isomer, unassigned)	5.4
Clc1ccc(-c2ccc(Cl)c(Cl)c2)cc1Cl	6.63
Clc1cc(-c2cc(Cl)c(Cl)c(Cl)c2)cc(Cl)c1Cl	7.41
ClC1=C(Cl)[C@]2(Cl)[C@H]3[C@H]([C@@H]4C=C[C@H]3C4)[C@@]1(Cl)C2(Cl)Cl (racemic)	6.5
COP(=S)(OC)Oc1cc(Cl)c(I)cc1Cl	5.51
